Experimental data taken from patent US10828143B2, “Tissue-engineered bowel constructs” (Wake Forest University Health Sciences, priority 2015, dated 2020).
Entries after “also recorded” stand apart in the source; their conditions may differ.

Assays:
Design in all cases: species or system human
[1] = system: circular strips of implanted engineered sphincter and gut segments; assay: Real time force generation of circular strips of harvested sphincters and gut tissues
circular strips of hTEB = assay: Organ bath studies of hTEB circular strips following omentum implantation
[2] = system: sphincter and rectal cuff cross sections; assay: Physiological studies on cross sections of harvested sphincter and rectal cuff

With `COC(=O)[C@@H](N)CCCNC(=N)N[N+](=O)[O-].Cl` [LNAME, Nω-Nitro-L-arginine methyl ester hydrochloride] the “EFS-induced relaxation after LNAME pre-treatment” value ([1]; gut segments, without LNAME −355±8 μN, in µN) was −223±29, the “effect on magnitude of EFS-induced relaxation” value ([1]; pre-incubation of implants with LNAME) was “significantly reduced” and the “EFS-induced relaxation after LNAME pre-treatment” value ([1]; sphincters, without LNAME −294±26 μN) was −140±6 μN. The “inhibition of EFS-induced relaxation” value (circular strips of hTEB; pretreatment with LNAME) was 50%.

`NC1=N[C@H](O)[C@H]2[C@H]3O[C@]4(O)O[C@@H]([C@@H](O)[C@@]2(N1)[C@@H]4O)[C@]3(O)CO` [TTX, tetrodotoxin] was tested, and the “effect on EFS-induced relaxation” value [1] was “completely abolished”, the “effect on EFS-induced relaxation” value (circular strips of hTEB) was “abolished” and the “effect on Ach-induced contraction” value [2] was “significantly attenuated”. The “effect on EFS-induced relaxation” value [2] was “completely inhibited” and the “effect on VIP-induced relaxation” value [2] was “significantly diminished”.

For `CN1[C@@H]2CC[C@H]1C[C@@H](OC(=O)C(CO)c1ccccc1)C2` (stereo partly shown) [atropine], the “effect on ACh-induced contraction” value (circular strips of hTEB) was “did not cause a contraction; also recorded: inhibited”.
